Legend:
Pseudomonas aeruginosa [1] = assay: Antibacterial activity against Pseudomonas aeruginosa ATCC 27853 at 1000 ug/mL after 24 hrs by well plate method; type: functional; settings: ATCC 27853, 24 h, read-out: DIZ
Staphylococcus aureus [2] = assay: Antibacterial activity against Staphylococcus aureus ATCC 25923 at 500 ug/mL after 24 hrs by well plate method; type: functional; settings: ATCC 25923, 24 h, read-out: DIZ
Staphylococcus aureus [3] = assay: Antibacterial activity against Staphylococcus aureus ATCC 25923 at 1000 ug/mL after 24 hrs by well plate method; type: functional; settings: ATCC 25923, 24 h, read-out: DIZ
Escherichia coli [4] = assay: Antibacterial activity against Escherichia coli ATCC 25922 at 500 ug/mL after 24 hrs by well plate method; type: functional; settings: ATCC 25922, 24 h, read-out: DIZ
Escherichia coli [5] = assay: Antibacterial activity against Escherichia coli ATCC 25922 at 1000 ug/mL after 24 hrs by well plate method; type: functional; settings: ATCC 25922, 24 h, read-out: DIZ
[6] = Antioxidant activity assessed as ABTS+ radical scavenging activity after 30 mins by UV-vis spectrophotometric analysis; type: functional
Liver microsomes = assay: Antioxidant activity in Wistar rat liver microsomes assessed as inhibition of lipid peroxidation after 60 mins by UV-vis spectrophotometric analysis; type: functional, Microsome
[7] = tested on: Radical scavenging activity; assay: Antioxidant activity assessed as DPPH radical scavenging activity after 20 mins by UV-vis spectrophotometric analysis; type: functional
Candida albicans [8] = assay: Antifungal activity against Candida albicans MTCC 3017 at 500 ug/mL after 72 hrs by well plate method; type: functional; settings: MTCC 3017, 72 h, read-out: DIZ
Candida albicans [9] = assay: Antifungal activity against Candida albicans MTCC 3017 at 1000 ug/mL after 72 hrs by well plate method; type: functional; settings: MTCC 3017, 72 h, read-out: DIZ
[10] = Antifungal activity against Chrysosporium keratinophilum MTCC 2827 at 500 ug/mL after 72 hrs by well plate method; type: functional
[11] = Antifungal activity against Chrysosporium keratinophilum MTCC 2827 at 1000 ug/mL after 72 hrs by well plate method; type: functional
Aspergillus flavus [12] = assay: Antifungal activity against Aspergillus flavus MTCC 3306 at 500 ug/mL after 72 hrs by well plate method; type: functional; settings: MTCC 3306, 72 h, read-out: DIZ
Aspergillus flavus [13] = assay: Antifungal activity against Aspergillus flavus MTCC 3306 at 1000 ug/mL after 72 hrs by well plate method; type: functional; settings: MTCC 3306, 72 h, read-out: DIZ
Pseudomonas aeruginosa [14] = assay: Antibacterial activity against Pseudomonas aeruginosa ATCC 27853 at 500 ug/mL after 24 hrs by well plate method; type: functional; settings: ATCC 27853, 24 h, read-out: DIZ

SMILES	zone of inhibition at 1000 µg/mL (Pseudomonas aeruginosa [1]) [mm]	zone of inhibition at 500 µg/mL (Staphylococcus aureus [2]) [mm]	zone of inhibition at 1000 µg/mL (Staphylococcus aureus [3]) [mm]	zone of inhibition at 500 µg/mL (Escherichia coli [4]) [mm]	zone of inhibition at 1000 µg/mL (Escherichia coli [5]) [mm]	IC50 [6] [µM]	IC50 (Liver microsomes) [µM]	IC50 [7] [µM]	zone of inhibition at 500 µg/mL (Candida albicans [8]) [mm]	zone of inhibition at 1000 µg/mL (Candida albicans [9]) [mm]	inhibition zone (IZ) [10] [mm]	inhibition zone (IZ) [11] [mm]	zone of inhibition at 500 µg/mL (Aspergillus flavus [12]) [mm]	zone of inhibition at 1000 µg/mL (Aspergillus flavus [13]) [mm]	zone of inhibition at 500 µg/mL (Pseudomonas aeruginosa [14]) [mm]
COc1cc(C2CC(=NOC(=O)c3ccc(Br)cc3)CC(c3ccc(O)c(OC)c3)N2C)ccc1O (configuration not stated)	9	7	9	7	11	108	112	103	8	9	5	7	5	6	7
OC(Cn1cncn1)(Cn1cncn1)c1ccc(F)cc1F [FLUCONAZOLE]	–	–	–	–	–	–	–	–	20	22	16	17	12	14	–
COc1cc(C2CC(=NOC(=O)c3ccc(O)cc3)CC(c3ccc(O)c(OC)c3)N2C)ccc1O (configuration not stated)	3	4	6	4	5	15.1	22.5	14.2	2	2	2	3	12	1	2
COc1cc(C2CC(=NOC(=O)c3ccc(Cl)cc3)CC(c3ccc(O)c(OC)c3)N2C)ccc1O (configuration not stated)	15	9	13	12	17	112	121	110	16	19	12	10	12	15	12
COc1cc(C2CC(=NOC(=O)c3ccccc3)CC(c3ccc(O)c(OC)c3)N2C)ccc1O (configuration not stated)	2	3	4	2	3	156	165	141	2	3	2	3	1	2	1
CN[C@@H]1[C@H](O[C@H]2[C@H](O[C@H]3[C@H](O)[C@@H](O)[C@H](N=C(N)N)[C@@H](O)[C@@H]3N=C(N)N)O[C@@H](C)[C@]2(O)C=O)O[C@@H](CO)[C@H](O)[C@H]1O [STREPTOMYCIN]	16	12	15	12	18	–	–	–	–	–	–	–	–	–	13
COc1cc(C2CC(=NO)CC(c3ccc(O)c(OC)c3)N2C)ccc1O (configuration not stated)	1	0	1	0	1	158	167	144	0	1	1	1	0	1	0
COc1ccc(C(=O)ON=C2CC(c3ccc(O)c(OC)c3)N(C)C(c3ccc(O)c(OC)c3)C2)cc1 (configuration not stated)	4	2	4	2	3	33	40	28	5	7	4	4	5	6	3
COc1cc(C2CC(=NOC(=O)c3ccc([N+](=O)[O-])cc3)CC(c3ccc(O)c(OC)c3)N2C)ccc1O (configuration not stated)	8	5	8	4	8	79	82	76	7	6	4	5	3	4	5
COc1cc(C2CC(=NOC(=O)c3cc(O)c(O)c(O)c3)CC(c3ccc(O)c(OC)c3)N2C)ccc1O (configuration not stated)	4	4	6	5	7	11.8	16.1	10	6	8	3	4	2	4	3
COc1cc(C2CC(=NOC(=O)c3cccc(O)c3)CC(c3ccc(O)c(OC)c3)N2C)ccc1O (configuration not stated)	5	5	7	6	7	16.5	25.3	15.6	1	3	1	2	1	2	3
COc1ccc(C(=O)ON=C2CC(c3ccc(O)c(OC)c3)N(C)C(c3ccc(O)c(OC)c3)C2)c(OC)c1 (configuration not stated)	6	3	5	4	6	41	52	32	4	6	4	5	4	5	6
COc1cc(C2CC(=NOC(=O)c3ccccc3O)CC(c3ccc(O)c(OC)c3)N2C)ccc1O (configuration not stated)	4	5	5	4	6	15.9	24.1	14.8	2	6	4	6	3	4	3
COc1cc(C2CC(=NOC(=O)c3cc(O)cc(O)c3)CC(c3ccc(O)c(OC)c3)N2C)ccc1O (configuration not stated)	5	5	5	5	4	12.3	17.2	10.8	3	3	2	1	1	2	4
COc1cc(C2CC(=NOC(=O)c3ccc(F)cc3)CC(c3ccc(O)c(OC)c3)N2C)ccc1O (configuration not stated)	16	13	15	13	18	141	140	133	18	20	14	12	13	17	13
COc1cc(C2CC(=NOC(=O)c3cc(OC)c(OC)c(OC)c3)CC(c3ccc(O)c(OC)c3)N2C)ccc1O (configuration not stated)	5	4	6	4	5	53	61	40	3	3	3	6	4	3	3

From ChEMBL document CHEMBL2203267, “Synthesis, antioxidant and antimicrobial activity of novel vanillin derived piperidin-4-one oxime esters: preponderant role of the phenyl ester substituents on the piperidin-4-one oxime core” (Bioorg Med Chem Lett, 2012)
